Measured values from ChEMBL document CHEMBL1800037, “Anti-proliferative activity of aguerin B and a new rare nor-guaianolide lactone isolated from the aerial parts of Centaurea deflexa” (Eur J Med Chem, 2011).
Calls of active or inactive are those of the source. No cut-off for these calls is given here.

What was measured:
MIA PaCa-2 [1] = assay: Induction of apoptosis in human MIAPaCa2 cells assessed as increase of interneucleosomal DNA fragmentation at 10 uM after 24 hrs; format: functional, cell-based
COLO 320 [2] = assay: Induction of apoptosis in human COLO320 cells assessed as increase of interneucleosomal DNA fragmentation at 10 uM after 24 hrs; format: functional, cell-based
HEK293 = assay: Antiproliferative activity against human HEK293 cells up to 100 uM; format: cell-based
MIA PaCa-2 [3] = assay: Antiproliferative activity against human MIAPaCa2 cells after 72 hrs; format: functional, cell-based; settings: MIA PaCa-2, 72 h
MIA PaCa-2 [4] = assay: Antiproliferative activity against human MIAPaCa2 cells after 48 hrs; format: functional, cell-based; settings: MIA PaCa-2, 48 h
[5] = Antiproliferative activity against human COLO320 cells after 72 hrs; format: functional, cell-based; settings: COLO 320, 72 h
COLO 320 [6] = assay: Antiproliferative activity against human COLO320 cells; format: functional, cell-based; settings: TDE = time-dependent effect
MIA PaCa-2 [7] = assay: Antiproliferative activity against human MIAPaCa2 cells; format: functional, cell-based; settings: TDE = time-dependent effect
MIA PaCa-2 [8] = assay: Antiproliferative activity against human MIAPaCa2 cells after 48 to 72 hrs; format: functional, cell-based
COLO 320 [9] = assay: Antiproliferative activity against human COLO320 cells after 48 to 72 hrs; format: functional, cell-based
[10] = Antiproliferative activity against human COLO320 cells after 48 hrs; format: functional, cell-based; settings: COLO 320, 48 h
COLO 320 [11] = assay: Induction of apoptosis in human COLO320 cells assessed as increase of interneucleosomal DNA fragmentation at 5 uM after 24 hrs relative to control; format: functional
MIA PaCa-2 [12] = assay: Induction of apoptosis in human MIAPaCa2 cells assessed as increase of interneucleosomal DNA fragmentation at 5 uM after 24 hrs relative to control; format: functional

SMILES | Activity (MIA PaCa-2 [1]) | Activity (COLO 320 [2]) | Activity (HEK293) | IC50 (MIA PaCa-2 [3]) [µM] | IC50 (MIA PaCa-2 [4]) [µM] | IC50 [5] [µM] | Activity (COLO 320 [6]) | Activity (MIA PaCa-2 [7]) | Activity (MIA PaCa-2 [8]) | Activity (COLO 320 [9]) | IC50 [10] [µM] | fold change (FC) (COLO 320 [11]) | fold change (FC) (MIA PaCa-2 [12])
C=C1C[C@H](O)[C@@H]2[C@H](OC(=O)[C@H]2C)[C@H]2CC(=O)C[C@@H]12 | inactive | inactive | Non-toxic | 15.9 | 25.7 | 6 | tde | tde | Dose-dependent effect | Dose-dependent effect | 10 | – | –
C=C(C)C(=O)O[C@H]1CC(=C)[C@@H]2C[C@H](O)C(=C)[C@@H]2[C@H]2OC(=O)C(=C)[C@@H]21 [AGUERIN B] | – | – | Non-toxic | 3.6 | 7.5 | 2.6 | tde | tde | Dose-dependent effect | Dose-dependent effect | 3.2 | >2 | >2
O=c1[nH]cc(F)c(=O)[nH]1 [FLUOROURACIL] | – | – | – | 7.4 | 14 | 8.7 | – | – | – | – | 10 | – | –
